Measurements as given in patent US20260158102A1, “CYCLIC PEPTIDE DERIVATIVE COMPOSITION FOR TREATING OR PREVENTING NEUROPATHIC PAIN AND/OR INFLAMMATORY PAIN” (DKS Co. Ltd., priority 2022, published 2026).

Columns and labels:
[1] = Measurement of blood glucose level in rat STZ-induced diabetes model; type: in vivo; conditions: mean ± SE
Description: (§1) Compound 9 (50 mg/mL) was diluted with water for injection to obtain a 1 mg/mL administration specimen. For the specimens to be administered at 0.1 mg/mL and 0.01 mg/mL, the specimen to be administered at 1 mg/mL was diluted stepwise with water for injection. Each administration specimen was divided into PP disposable tubes every day and stored in a storehouse (freezer: MDF-MU339H-PJ, PHC Corporation) under the condition of freezing (−30° C. to −20° C., measured value: −26.4 to −24.5° C.). Preparation was performed on the day before the start of administration.
(§2) Water for injection was added to and dissolved in Pregabalin taken out from the capsule to obtain 2 mg/mL. It was prepared before use.
(§3) • Animal species: rat (SPF) • Strain: Crl: CD (SD) • Date of animal acquisition, gender, age in weeks, number of animals acquired, and weight range after 1 day of acquisition • First and second courses: Apr. 6, 2022, male, 7 weeks old, 35 animals, 217 to 237 g • Third and fourth courses: Apr. 13, 2022, male, 7 weeks old, 35 animals, 216 to 235 g • Source: […].
(§4) • Dose volume: calculated at 2 mL/kg based on the body weight on the day of administration. • Number of times of administration: once • Day of administration: 7 days before the day of starting administration of the test substance.
(§5) • Dose volume: calculated at 1 mL/kg based on the body weight on the day of administration. • Number of times of administration: 9 times • Interval of administration: once every 3 days (evaluation was performed on the day after administration) • Day of starting administration: day 8 of STZ administration (day of STZ administration is counted as day 1).
(§6) • Dose volume: calculated at 10 mL/kg based on the body weight on the day of administration. • Number of times of administration: Administration was performed once on the day of evaluation of neuropathic pain, twice in total, and on the other days of administration, a vehicle for a control substance (water for injection) was orally administered.
On days 7 and 35 of STZ administration, about 50 μL of blood was collected from the tail vein using a winged injection needle (Terumo Corporation) equipped with a heparinized capillary (DRUMMOND […]).
The blood obtained above was centrifuged [centrifugal conditions: 4° C., 3,000 rpm (×2,150 g), 15 min] with a centrifuge (CF 9RX, Hitachi Koki Co., Ltd.) to obtain plasma. Blood glucose levels of a part of plasma obtained by blood collection on day 7 and day 35 after STZ administration were measured by hexokinase G-6 PDH method (L-type Wako Glu2, FUJIFILM Wako Pure Chemical Corporation) using a biochemical automatic analyzer (AU480, Beckman Coulter, Inc.). […] The plasma after the measurement was discarded.
(§7) The mean and standard error of each group were calculated for the 50% withdrawal threshold, body weight, and blood glucose level.
(§8) The body weight was an integer.
(§9) No significant difference test of body weight and blood glucose levels was performed.

[2] = Body weight measurement in rat STZ-induced diabetes model; type: in vivo; conditions: 20 mg/kg oral, mean ± SE, in g (unit assumed)
Description: as §1, §2, §3, §4, §5, §6
• Measurement was performed every day after the day of STZ administration.
as §7, §8, §9

## CC(C)C[C@H](CN)CC(=O)O [Pregabalin, reference compound]
[1]; 20 mg/kg oral group, day 7 of STZ administration (before start of dosing)
  Blood glucose level, Glu: 575.8 ± 20.0 mg/dL
[1]; 20 mg/kg oral, day 35 of STZ administration
  Blood glucose level, Glu: 567.4 ± 22.5 mg/dL
[2]; day 1 of STZ administration
  Body weight: 293 ± 5
[2]; day 2 of STZ administration
  Body weight: 278 ± 5
[2]; day 3 of STZ administration
  Body weight: 272 ± 5
[2]; day 4 of STZ administration
  Body weight: 275 ± 4
[2]; day 5 of STZ administration
  Body weight: 280 ± 4
[2]; day 6 of STZ administration
  Body weight: 282 ± 4
[2]; day 7 of STZ administration
  Body weight: 288 ± 4
[2]; day 8 of STZ administration
  Body weight: 285 ± 4
[2]; day 9 of STZ administration
  Body weight: 289 ± 4
[2]; day 10 of STZ administration
  Body weight: 291 ± 5
[2]; day 11 of STZ administration
  Body weight: 297 ± 4
[2]; day 12 of STZ administration
  Body weight: 297 ± 5
[2]; day 13 of STZ administration
  Body weight: 298 ± 5
[2]; day 14 of STZ administration
  Body weight: 302 ± 6
[2]; day 15 of STZ administration
  Body weight: 297 ± 4
[2]; day 16 of STZ administration
  Body weight: 300 ± 5
[2]; day 17 of STZ administration
  Body weight: 304 ± 5
[2]; day 18 of STZ administration
  Body weight: 303 ± 5
[2]; day 19 of STZ administration
  Body weight: 302 ± 6
[2]; day 20 of STZ administration
  Body weight: 308 ± 5
[2]; day 21 of STZ administration
  Body weight: 305 ± 6
[2]; day 22 of STZ administration
  Body weight: 309 ± 5
[2]; day 23 of STZ administration
  Body weight: 307 ± 7
[2]; day 24 of STZ administration
  Body weight: 305 ± 7
[2]; day 25 of STZ administration
  Body weight: 307 ± 6
[2]; day 26 of STZ administration
  Body weight: 309 ± 6
[2]; day 27 of STZ administration
  Body weight: 304 ± 7
[2]; day 28 of STZ administration
  Body weight: 307 ± 7
[2]; day 29 of STZ administration
  Body weight: 302 ± 7
[2]; day 30 of STZ administration
  Body weight: 302 ± 7
[2]; day 31 of STZ administration
  Body weight: 304 ± 8
[2]; day 32 of STZ administration
  Body weight: 305 ± 8
[2]; day 33 of STZ administration
  Body weight: 307 ± 8
[2]; day 34 of STZ administration
  Body weight: 306 ± 7
[2]; day 35 of STZ administration
  Body weight: 307 ± 7
